The target of one assay is RON (human) (Homo sapiens, UniProt Q04912). In words: RON (human) AlphaScreen kinase assay, Km of ATP. Conditions: AlphaScreen, Km of ATP; read-out: RON biochemical IC50. The class given is biochemical. In outline: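 Reaction was started with enzyme and run 30 min at RT. PT66 donor/acceptor beads in an EDTA-containing Tris pH 7.5 buffer were then added, and the signal was read after 1 h.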
Background: Bead proximity is the source of the signal in Alpha formats.

The next assay addresses MET (human) (Homo sapiens, UniProt P08581). In words: MET (human) AlphaScreen kinase assay, Km of ATP. The class given is biochemical. As to conditions: AlphaScreen, Km of ATP; read-out: Met biochemical IC50. The essentials: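 Human MET at lot-optimised concentration in 50 mM Tris pH 7.4 buffer with 1 mM DTT, compound at 1% DMSO final; enzyme starts the reaction, 60 min at RT.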

pIC50: −log10 of the molar value. Bounds are passed on as bounds.

Sequence of RON (human) (Q04912 25-1400): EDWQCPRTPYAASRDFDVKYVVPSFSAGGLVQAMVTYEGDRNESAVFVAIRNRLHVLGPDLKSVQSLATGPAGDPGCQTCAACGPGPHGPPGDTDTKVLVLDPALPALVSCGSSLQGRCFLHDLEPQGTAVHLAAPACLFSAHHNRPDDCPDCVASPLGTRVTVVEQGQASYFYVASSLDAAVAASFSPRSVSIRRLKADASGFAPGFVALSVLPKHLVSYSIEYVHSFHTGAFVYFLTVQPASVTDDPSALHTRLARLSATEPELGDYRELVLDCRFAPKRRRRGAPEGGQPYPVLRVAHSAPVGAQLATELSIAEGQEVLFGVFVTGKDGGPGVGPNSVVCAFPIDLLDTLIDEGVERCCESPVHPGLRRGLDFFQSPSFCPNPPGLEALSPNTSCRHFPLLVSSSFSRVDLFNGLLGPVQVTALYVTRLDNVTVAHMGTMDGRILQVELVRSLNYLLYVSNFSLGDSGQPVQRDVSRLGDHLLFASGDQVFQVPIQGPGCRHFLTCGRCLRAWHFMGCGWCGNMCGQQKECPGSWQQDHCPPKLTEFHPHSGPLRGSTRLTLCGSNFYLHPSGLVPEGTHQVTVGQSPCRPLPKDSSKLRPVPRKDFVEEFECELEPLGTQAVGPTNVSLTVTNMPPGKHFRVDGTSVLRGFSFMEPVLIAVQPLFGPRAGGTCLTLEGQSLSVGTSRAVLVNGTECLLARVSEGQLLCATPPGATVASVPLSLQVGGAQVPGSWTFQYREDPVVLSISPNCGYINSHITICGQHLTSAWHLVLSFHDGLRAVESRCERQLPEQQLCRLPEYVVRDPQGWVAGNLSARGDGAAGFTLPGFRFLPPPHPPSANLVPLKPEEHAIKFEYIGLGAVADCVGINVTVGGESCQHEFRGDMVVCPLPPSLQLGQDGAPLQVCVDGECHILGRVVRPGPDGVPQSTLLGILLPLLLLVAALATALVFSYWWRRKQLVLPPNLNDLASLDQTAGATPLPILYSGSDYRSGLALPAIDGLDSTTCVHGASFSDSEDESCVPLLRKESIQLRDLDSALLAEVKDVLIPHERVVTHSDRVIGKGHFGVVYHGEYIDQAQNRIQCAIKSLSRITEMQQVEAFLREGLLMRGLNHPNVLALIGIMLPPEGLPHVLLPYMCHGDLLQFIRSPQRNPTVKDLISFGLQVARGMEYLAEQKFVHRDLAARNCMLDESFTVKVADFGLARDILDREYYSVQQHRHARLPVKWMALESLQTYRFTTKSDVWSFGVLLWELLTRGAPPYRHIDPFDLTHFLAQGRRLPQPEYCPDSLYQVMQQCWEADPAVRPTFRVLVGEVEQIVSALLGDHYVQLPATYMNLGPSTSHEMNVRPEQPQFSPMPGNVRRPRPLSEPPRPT
Sequence of MET (human) (P08581 25-1390): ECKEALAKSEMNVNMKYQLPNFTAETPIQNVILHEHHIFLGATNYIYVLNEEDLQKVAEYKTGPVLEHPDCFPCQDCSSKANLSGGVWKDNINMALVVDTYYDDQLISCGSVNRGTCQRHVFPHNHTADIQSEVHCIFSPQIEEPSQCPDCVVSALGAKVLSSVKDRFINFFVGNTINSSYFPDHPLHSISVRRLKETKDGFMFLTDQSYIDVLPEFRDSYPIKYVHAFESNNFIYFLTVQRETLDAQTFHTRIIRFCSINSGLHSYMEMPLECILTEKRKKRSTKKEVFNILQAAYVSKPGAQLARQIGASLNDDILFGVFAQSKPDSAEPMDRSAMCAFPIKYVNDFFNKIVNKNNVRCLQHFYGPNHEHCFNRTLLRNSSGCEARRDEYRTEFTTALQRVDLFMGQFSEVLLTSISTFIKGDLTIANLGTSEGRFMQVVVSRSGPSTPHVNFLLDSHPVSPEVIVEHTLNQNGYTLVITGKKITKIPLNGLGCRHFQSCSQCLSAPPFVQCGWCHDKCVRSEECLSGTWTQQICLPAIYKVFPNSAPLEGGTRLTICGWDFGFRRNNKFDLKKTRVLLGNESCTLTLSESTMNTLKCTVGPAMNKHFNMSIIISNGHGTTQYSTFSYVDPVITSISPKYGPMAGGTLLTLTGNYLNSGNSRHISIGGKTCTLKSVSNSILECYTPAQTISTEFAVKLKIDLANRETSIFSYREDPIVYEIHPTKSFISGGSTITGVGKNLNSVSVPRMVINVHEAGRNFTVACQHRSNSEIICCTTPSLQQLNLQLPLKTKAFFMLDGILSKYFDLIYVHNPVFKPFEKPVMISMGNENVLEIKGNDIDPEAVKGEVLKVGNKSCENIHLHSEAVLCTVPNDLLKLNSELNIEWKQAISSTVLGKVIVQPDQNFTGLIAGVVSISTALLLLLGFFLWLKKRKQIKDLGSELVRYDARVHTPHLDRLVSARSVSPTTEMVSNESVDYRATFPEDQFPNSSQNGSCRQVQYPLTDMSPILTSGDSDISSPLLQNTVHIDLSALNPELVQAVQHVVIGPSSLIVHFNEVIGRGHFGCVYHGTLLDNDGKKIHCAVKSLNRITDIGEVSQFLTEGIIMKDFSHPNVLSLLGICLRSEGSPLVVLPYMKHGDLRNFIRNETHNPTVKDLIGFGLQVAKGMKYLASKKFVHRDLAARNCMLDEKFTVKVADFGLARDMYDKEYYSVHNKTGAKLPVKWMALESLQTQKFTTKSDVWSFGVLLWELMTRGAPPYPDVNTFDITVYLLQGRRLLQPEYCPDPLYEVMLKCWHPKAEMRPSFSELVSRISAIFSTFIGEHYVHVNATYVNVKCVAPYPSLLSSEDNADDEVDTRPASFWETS

Broadly, the pIC50 is the IC50 on a negative log10 scale, so that one unit is a factor of ten. For `CC(Cc1c(Cl)cccc1C(F)(F)F)Oc1c(N)ncc2c(-c3cnn(C4CCNCC4)c3)coc12` (stereo not shown) [Example 440, 7-[2-(2-Chloro-6-trifluoromethylphenyl)-1-methylethoxy]-3-(1-piperidin-4-yl-1H-pyrazol-4-yl)furo[3,2-c]pyridin-6-ylamine], the negative logarithm of the IC50 (pIC50) at RON (human) is 5.30 to 6.30; on MET (human), greater than 6.30.
Turning to `CC(Oc1c(N)ncc2c(-c3cnn(C4CCNCC4)c3)coc12)c1cccc(-c2ccccc2)c1` (stereo not shown) [Example 444, 7-(1-Biphenyl-3-ylethoxy)-3-(1-piperidin-4-yl-1H-pyrazol-4-yl)furo[3,2-c]pyridin-6-ylamine], the negative logarithm of the IC50 (pIC50) at RON (human) and on MET (human) was 5.30 to 6.30 throughout.
For `C[C@@H](Oc1c(N)ncc2c(-c3cccc(S(C)(=O)=O)c3)coc12)c1c(Cl)ccc(F)c1Cl` [Example 67, 7-[(R)-1-(2,6-Dichloro-3-fluor-phenyl)ethoxy]-3-(3-methane-sulfonylphenyl)-furo[3,2-c]pyridin-6-ylamine], the pIC50 at RON (human) was 5.30 to 6.30; at MET (human), greater than 6.30.
Take `C[C@@H](Oc1c(N)ncc2c(-c3cnn(C4CCN(C(N)=O)CC4)c3)coc12)c1c(Cl)ccc(F)c1Cl` [Example 272, 4-(4-{6-Amino-7-[(1R)-1-(2,6-dichloro-3-fluorophenyl)ethoxy]furo[3,2-c]pyridin-3-yl}-1H-pyrazol-1-yl)piperidine-1-carboxamide]: the pIC50 on RON (human) and on MET (human) was 5.30 to 6.30 each time.
For the compound `C[C@@H](Oc1c(N)ncc2c(C3=CCN(C(=O)[C@@H]4CCCCN4)CC3)coc12)c1c(Cl)ccc(F)c1Cl` [Example 238, (4-{6-Amino-7-[(R)-1-(2,6-dichloro-3-fluorophenyl)ethoxy]-furo[3,2-c]pyridin-3-yl}-3,6-dihydro-2H-pyridin-1-yl)-(S)-piperidin-2-ylmethanone], the pIC50 on RON (human) and on MET (human) was greater than 6.30 throughout.
`COCCCNC(=O)c1ccc(-c2coc3c(O[C@H](C)c4c(Cl)ccc(F)c4Cl)c(N)ncc23)cc1` [Example 286, 4-{6-Amino-7-[(R)-1-(2,6-dichloro-3-fluorophenyl)ethoxy]furo[3,2-c]pyridin-3-yl}-N-(3-methoxypropyl)-benzamide]: the pIC50 at RON (human) and on MET (human) was 5.30 to 6.30 throughout.
Regarding `CC(Oc1c(N)ncc2c(-c3cnn(C4CCNCC4)c3)coc12)c1cccnc1` (stereo not shown) [Example 398, 3-(1-Piperidin-4-yl-1H-pyrazol-4-yl)-7-(1-pyridin-3-ylethoxy)furo[3,2-c]pyridin-6-ylamine], the pIC50 at RON (human) and on MET (human) was 5.30 to 6.30 each time.
As to `CC(Oc1c(N)ncc2c(-c3cnn(C4CCNCC4)c3)coc12)c1c(Cl)c(F)cc(OC2CNC2)c1Cl` (stereo not shown) [Example 159, 7-{1-[3-(Azetidin-3-yloxy)-2,6-dichloro-5-fluorophenyl]ethoxy}-3-[1-(piperidin-4-yl)-1H-pyrazol-4-yl]furo[3,2-c]pyridin-6-amine], the pIC50 on RON (human) and on MET (human) was greater than 6.30 each time.
In the case of `C[C@@H](Oc1c(N)ncc2c(C3=CCN(C(=O)[C@@H](O)c4ccccc4)CC3)coc12)c1c(Cl)ccc(F)c1Cl` [Example 265, (2S)-1-[4-{6-Amino-7-[(1R)-1-(2,6-dichloro-3-fluorophenyl)ethoxy]furo[3,2-c]pyridin-3-yl}-3,6-dihydropyridin-1(2H)-yl]-2-hydroxy-2-phenylethanone], the figures for the negative logarithm of the IC50 (pIC50) on RON (human) and on MET (human) were greater than 6.30 and 5.30 to 6.30, respectively.
Regarding `Nc1ncc2c(-c3cnn(C4CCNCC4)c3)coc2c1OC/C=C/c1c(Cl)ccc(F)c1Cl` [Example 356, 7-[(E)-3-(2,6-Dichloro-3-fluorophenyl)allyloxy]-3-(1-piperidin-4-yl-1H-pyrazol-4-yl)furo[3,2-c]pyridin-6-ylamine], the negative-log IC50 (pIC50) on RON (human) and on MET (human) was greater than 6.30 throughout.
On to `CC(Oc1c(N)ncc2c(-c3cnn(C4CCNCC4)c3)coc12)c1ncc(C(F)(F)F)cc1Cl` (stereo not shown) [Example 413, 7-[1-(3-Chloro-5-trifluoromethylpyridin-2-yl)ethoxy]-3-(1-piperidin-4-yl-1H-pyrazol-4-yl)furo[3,2-c]pyridin-6-ylamine], for which the pIC50 on RON (human) and at MET (human) was 5.30 to 6.30 in each case.

Values taken from patent US8022206B2 (OSI Pharmaceuticals, LLC, priority 2008, dated 2011).
